Reference: patent US8765775B2, “Anti-angiogenic compounds” (Universitaet Zuerich, priority 2008, dated 2014)
Several values for one entry are separate records, joined by “and”; a condition that tells them apart may be missing. Equal values may be shown once.

Key:
[1] = biological target: T1, myc-tagged full-length human EphB4 (Homo sapiens, UniProt P54760); assay: Phospho-EphB4 ELISA of CHO cells (EphB4 autophosphorylation); format: cell-based
T1 construct: stably transfected with myc-tagged full-length human EphB4; expressed in transfected cells; host or cells: CHO-FRT cells (Flip-In System, Invitrogen)
T1 sequence (P54760 16-987): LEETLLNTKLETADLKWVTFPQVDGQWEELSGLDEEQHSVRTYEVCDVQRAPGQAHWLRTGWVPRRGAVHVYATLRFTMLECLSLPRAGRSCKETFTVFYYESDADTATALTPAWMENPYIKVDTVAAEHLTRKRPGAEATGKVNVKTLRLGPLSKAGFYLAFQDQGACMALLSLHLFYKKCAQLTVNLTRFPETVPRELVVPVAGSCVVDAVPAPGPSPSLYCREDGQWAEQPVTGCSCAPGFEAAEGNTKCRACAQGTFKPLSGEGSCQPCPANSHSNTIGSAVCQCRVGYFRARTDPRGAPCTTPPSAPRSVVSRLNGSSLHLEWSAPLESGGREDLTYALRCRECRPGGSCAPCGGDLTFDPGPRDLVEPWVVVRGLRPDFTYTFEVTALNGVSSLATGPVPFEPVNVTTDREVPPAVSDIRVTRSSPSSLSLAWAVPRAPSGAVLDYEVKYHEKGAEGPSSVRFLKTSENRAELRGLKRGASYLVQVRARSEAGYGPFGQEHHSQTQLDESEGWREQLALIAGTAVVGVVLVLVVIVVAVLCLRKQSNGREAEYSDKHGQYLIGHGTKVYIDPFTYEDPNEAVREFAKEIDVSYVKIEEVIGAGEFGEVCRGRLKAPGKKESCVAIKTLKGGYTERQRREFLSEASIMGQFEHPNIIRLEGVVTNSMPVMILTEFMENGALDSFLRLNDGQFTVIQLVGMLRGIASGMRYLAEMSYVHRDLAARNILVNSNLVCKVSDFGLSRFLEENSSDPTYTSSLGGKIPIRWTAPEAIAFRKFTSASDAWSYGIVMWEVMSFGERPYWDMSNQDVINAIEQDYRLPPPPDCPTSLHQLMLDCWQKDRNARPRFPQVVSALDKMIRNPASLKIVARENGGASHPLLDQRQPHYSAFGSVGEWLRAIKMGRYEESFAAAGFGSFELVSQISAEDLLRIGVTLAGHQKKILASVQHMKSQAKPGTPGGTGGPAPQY
Procedure: Phospho-EphB4 ELISA of CHO cells. The ELISA assay was performed as follows: Chinese hamster ovary (CHO)-FRT cells are stably transfected with myc-tagged full-length human EphB4 according to the Flip-In System protocol (Invitrogen, USA). […] Cells of this clone are preincubated with EphB4 inhibitors for 15 minutes and then stimulated with preclustered ephrinB2-Fc for 45 minutes at 37° C. Cells are lysed, transferred to a 96-well plate coated with anti-myc antibody and incubated overnight at 4° C. After incubation with anti-phosphotyrosine antibody, reactions are developed with BM Blue peroxydase substrate, and autophosphorylation of EphB4 is quantified by measuring absorption at 450 nm.

EphB4 [2] = biological target: T2, EphB4 (Homo sapiens, UniProt P54760); assay: Panvera Z'Lyte FRET-based enzymatic assay; settings: for Inhibitory activity in the enzymatic assay (in words): Z'Lyte
T2 sequence (P54760 16-987): T1 sequence (P54760 16-987)
Procedure: In vitro kinase activity was measured using the Panvera Z'Lyte Tyr2 kinase assay PV3191 (Invitrogen, USA), according to the manufacturer's instructions. […] The reaction is performed at room temperature for 1 hour.

EphB4 [3] = biological target: T2, EphB4; assay: IC50 and % inhibition (Table 3); format: biochemical; settings: for IC50: repeated determinations
EphB4 [4] = biological target: T2, EphB4; assay: Cerep FRET-based enzymatic assay; format: biochemical; settings: ATP 0.75 μM, read-out: Enzymatic assays IC50 Cerep
Source text: Similar values of IC50 compared to the original FRET-based enzymatic assay (Z'Lyte) are obtained (Table 2).

EphB4 [5] = biological target: T2, EphB4; assay: Omnia kinetic assay (Omnia Tyr Recombinant Kit KNZ4051); format: biochemical; set-up: purchased Proqinase, Germany
Procedure: The data obtained in these experiments are shown in a specific velocity plot (FIG. 2), where the ratio of the initial velocities for the non-inhibited and inhibited reactions at a given ATP concentration (v0/vi in FIG. 2) is plotted versus σ/(1+σ), with σ=[ATP]/Km. […] Kinetic assay. […] Fluorescence progress curves are measured upon excitation at 360 nm and emission at 485 nm. […] Biosource Omnia. […] The assay is run at 30° C. for 1 hour.

[6] = C = 10 μM, read-out: % inhibition at indicated concentration C

## CCCn1c(-c2ccccc2)cn2c3c(=O)[nH]c(=O)n(C)c3nc12 [Compound 4]
[1]; in CHO cells, at 20 μM
  Cell-based assay percent inhibition: neg.
EphB4 [2]
  IC50: 1.9 µM
  Inhibitory activity in the enzymatic assay (in words): low-micromolar
EphB4 [3]; C = 10 μM, 10 µM
  % inhibition at indicated concentration C: 58% and 54%
EphB4 [3]; [6]
  inhibition at 10 µM: 62%
EphB4 [3]; Table 3, read-out: IC50
  IC50: 8 µM and 9 µM

## CC1(C)Cc2c(sc(NC(=O)Nc3ccccc3)c2C(N)=O)CO1 [Compound 9, reference compound]
EphB4 [2]; read-out: Enzymatic assays IC50 Z′Lyte, FRET-based, 10 μM ATP, 1% DMSO, room temperature 1 hour
  IC50: 76 µM

## Cn1c(=O)[nH]c(=O)c2c1nc1n(CCCCO)c(-c3ccc(NCCCCO)cc3)cn21 [Compound 29]
EphB4 [3]; C = 20 μM, 20 µM
  % inhibition at indicated concentration C: 50% and 62% and 37% and 34%
other
  melting point: 205 to 207 °C

## COc1ccccc1-n1c(-c2ccccc2)cn2c3c(=O)[nH]c(=O)n(Cc4ccccc4)c3nc12 [Compound 25, 1-Benzyl-8-(2-methoxyphenyl)-7-phenyl-1H-imidazo[2,1-f]purine-2,4(3H,8H)-dione]
EphB4 [3]; C = 10 μM, 10 µM
  % inhibition at indicated concentration C: 11%
EphB4 [3]; [6]
  inhibition at 10 µM: 15%
other
  melting point: 301 to 303 °C

## COc1ccccc1-n1c(-c2ccc(C#N)cc2)cn2c3c(=O)[nH]c(=O)n(C)c3nc12 [Compound 28, 8-(2-Methoxyphenyl)-1-methyl-7-p-cyanophenyl-1H-imidazo[2,1-f]purine-2,4(3H,8H)-dione]
EphB4 [3]; C = 20 μM, 20 µM
  % inhibition at indicated concentration C: 17%
EphB4 [3]; C = 20 μM, read-out: % inhibition at indicated concentration C
  inhibition at 20 µM: 13%
other
  melting point: 303 to 305 °C

## Cn1c(=O)[nH]c(=O)c2c1nc1n(CCCCO)c(-c3ccccc3)cn21 [Compound 2]
EphB4 [4]
  IC50: 6.8 µM
[1]; 20 μM
  Inhibitory effects on EphB4 autophosphorylation in CHO cells (in words): only mild inhibitory effects
[1]; in CHO cells, at 20 μM
  Cell-based assay percent inhibition: neg.
EphB4 [2]
  IC50: ~1.6 µM
EphB4 [2]; Enzymatic assays IC50 Z′Lyte, FRET-based, 10 μM ATP, 1% DMSO, room temperature 1 hour
  IC50: 1.4 µM and 1.8 µM
EphB4 [3]; C = 10 μM, 10 µM
  % inhibition at indicated concentration C: 67% and 68% and 59% and 64%
EphB4 [3]; [6]
  inhibition at 10 µM: 72%
EphB4 [3]; IC50, Table 3
  IC50: 6.7 µM
EphB4 [3]; Table 3, read-out: IC50
  IC50: 8 µM and 7 µM
EphB4 [5]; 0.01% Triton X-100
  Sensitivity of inhibition to detergent (in words): detergent-insensitive inhibition
EphB4 [5]; ATP 31.25 to 500 μM, Km 158 μM
  Mode of inhibition versus ATP (specific velocity plot): ATP competitive
EphB4 [5]; two experiments, with and without 0.01% Triton X-100, read-out: Ki corresponding to Omnia IC50
  Ki: 2.7 µM and 2.9 µM
EphB4 [5]; two experiments, without and with 0.01% Triton X-100, ATP 125 μM, 30° C. 1 hour, read-out: Enzymatic assays IC50 Omnia
  IC50: 5.6 µM and 7.9 µM

## O=c1[nH]c(=O)n(Cc2ccccc2)c2nc3n(-c4ccccc4)c(-c4ccc(F)cc4)c(Br)n3c12 [Compound 36, 1-Benzyl-6-bromo-7-p-fluorophenyl-8-phenyl-1H-imidazo[2,1-f]purine-2,4(3H,8H)-dione]
EphB4 [3]; C = 10 μM, 10 µM
  % inhibition at indicated concentration C: 10% and 4%
other
  melting point: 276 to 278 °C

## COCCCn1c(-c2ccccc2)cn2c3c(=O)[nH]c(=O)n(C)c3nc12 [Compound 6]
[1]; in CHO cells, at 20 μM, read-out: Cell-based assay percent inhibition
  inhibition at 20 µM: 28%
EphB4 [2]
  IC50: 50 µM
  Inhibitory activity in the enzymatic assay (in words): mid-micromolar range
EphB4 [3]; C = 10 μM, 10 µM
  % inhibition at indicated concentration C: 46%
EphB4 [3]; [6]
  inhibition at 10 µM: 49%

## CNc1ccc(-c2cn3c4c(=O)[nH]c(=O)n(Cc5ccccc5)c4nc3n2C)cc1 [Compound 20, 1-Benzyl-8-methyl-7-p-methylaminophenyl-1H-imidazo[2,1-f]purine-2,4(3H,8H)-dione]
other
  melting point: 288 to 290 °C
